Data as given in publication PMC8291587, “Guanidine Derivatives: How Simple Structural Modification of Histamine H3R Antagonists Has Led to the Discovery of Potent Muscarinic M2R/M4R Antagonists” (ACS Chemical Neuroscience, 2021).
Like-named read-outs stand apart in the source and are kept apart here.

Legend:
hM1R = molecular target: T1, hM1R (Homo sapiens, UniProt P11229); assay: hM1R radioligand binding ([3H]NMS, CHO cell membranes)
T1 construct: host or cells: CHO cells, stably transfected; crude membranes
T1 sequence (P11229 1-460): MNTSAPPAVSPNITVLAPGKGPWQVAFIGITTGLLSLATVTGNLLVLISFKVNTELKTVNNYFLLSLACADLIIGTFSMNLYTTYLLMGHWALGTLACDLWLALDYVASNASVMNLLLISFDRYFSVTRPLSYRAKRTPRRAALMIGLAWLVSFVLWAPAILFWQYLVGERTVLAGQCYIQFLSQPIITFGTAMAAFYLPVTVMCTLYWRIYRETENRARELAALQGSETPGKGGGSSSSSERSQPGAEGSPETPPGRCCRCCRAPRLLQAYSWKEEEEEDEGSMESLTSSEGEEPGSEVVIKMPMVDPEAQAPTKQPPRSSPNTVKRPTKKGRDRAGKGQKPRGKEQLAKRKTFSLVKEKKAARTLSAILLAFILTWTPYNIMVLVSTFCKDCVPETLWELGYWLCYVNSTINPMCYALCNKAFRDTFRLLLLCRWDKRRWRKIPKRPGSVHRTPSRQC
Method: To clearly explain the obtained outcome, we engaged the radioligand binding experiment. The hM1–hM5 radioligand binding experiments were performed in the membrane fractions of Chinese hamster ovary cells (CHO) stably expressing human variants of muscarinic receptors. N-[^3H]Methylscopolamine was used as the radiolabeled ligand.[39] Three compounds were selected from ex vivo screening on guinea pig ileum. […] This compound is also not completely selective for the remaining muscarinic receptor subtypes with −log Ki values over 6. […] It is also a potent muscarinic M1R antagonist, and the M1R/M2R selectivity ratio is <10. It is worth noting that such nonspecific anticholinergics are often associated with neuropsychiatric and cognitive disturbances and that nonselective muscarinic M1R/M2R antagonists, such as scopolamine, can produce cognitive deficits. Further structural modifications of ADS10227 should be used to increase selectivity toward the M2R, as these may present fewer potential side effects associated with the activation of the phospholipase C signaling pathway.
The culture was derived from CHO cells stably transfected with the genes of human variants of muscarinic receptors. These were purchased from Missouri S&T cDNA Resource Center (Rolla, MO, USA). Cell cultures and crude membranes were prepared as described previously.[45] The cells were grown to confluence in 75 cm^2 flasks in Dulbecco’s modified Eagle’s medium (DMEM) supplemented with 10% fetal bovine serum, and 2 million cells were subcultured to 100 mm Petri dishes. The medium was supplemented with 5 mM butyrate for the last 24 h of cultivation to increase receptor expression. Cells were detached by mild trypsinization on day 5 after subculture. Detached cells were washed twice in 50 mL of phosphate-buffered saline and 3 min centrifugation at 250g. […]
All radioligand binding experiments were optimized and carried out according to general guidelines.[39] […] N-Methylscopolamine binding was measured directly in saturation experiments using six concentrations (30–1000 pM) of [^3H]NMS during incubation for 1 h (M2R), 3 h (M1R, M3R, and M4R), or 5 h (M5R). For calculations of the equilibrium dissociation constant (KD), concentrations of free [^3H]NMS were calculated by subtraction of bound radioactivity from total radioactivity in the sample and fitting eq 1 (Experimental Data analysis section). The binding of the tested ligands was determined in competition experiments with 100 pM [^3H]NMS. […] Nonspecific binding was determined in the presence of 1 μM unlabeled atropine. […]

hH3R = molecular target: T2, hH3R (Homo sapiens, UniProt Q9Y5N1); assay: hH3R radioligand displacement binding assay ([3H]-Nα-methylhistamine, HEK-293 cell membranes); conditions: [3H]-Nα-methylhistamine; HEK-293 membranes; read-out: hH3R -log(Ki) ± sem (converted)
T2 construct: expressed in transfected cells; membrane fractions
Method: [^3H]-N^α-Methylhistamine was used as a radiolabeled ligand.
The radioligand displacement binding assay was performed in membrane fractions of HEK-293 cells stably expressing hH3R. Cell cultivation and membrane preparation were performed according to Kottke et al.[43] […] The total assay volume was set to 200 μL. The compounds were tested in several appropriate concentrations between 100 μM and 0.1 nM. Pipetting was partly done by Freedom Evo (Tecan). […] The membrane fraction (20 μg/well), test compounds, and radiolabeled ligand were incubated for 90 min at 25 °C while shaking. The bound radioligand was separated from free radioligand by filtration through GF/B filters pretreated with 0.3% (m/v) polyethylenimine using a cell harvester. Radioactivity was determined by liquid scintillation counting using a MicroBeta Trilux (PerkinElmer). The data were obtained in duplicates in at least three independent experiments. Nonspecific binding was subtracted from the raw data to calculate specific-binding values. The evaluation was performed with GraphPad Prism 6.1 (San Diego, CA, USA) using nonlinear regression (one-site competition with a logarithmic scale). The Ki values were calculated from the IC50 values using the Cheng–Prusoff equation.[44] The statistical calculations were performed on −log Ki. The mean values and 95% confidence intervals were transformed to nanomolar concentrations.

[1] = read-out: hM1R -log(Ki) ± sem (converted)

T2 sequence (Q9Y5N1 whole entry): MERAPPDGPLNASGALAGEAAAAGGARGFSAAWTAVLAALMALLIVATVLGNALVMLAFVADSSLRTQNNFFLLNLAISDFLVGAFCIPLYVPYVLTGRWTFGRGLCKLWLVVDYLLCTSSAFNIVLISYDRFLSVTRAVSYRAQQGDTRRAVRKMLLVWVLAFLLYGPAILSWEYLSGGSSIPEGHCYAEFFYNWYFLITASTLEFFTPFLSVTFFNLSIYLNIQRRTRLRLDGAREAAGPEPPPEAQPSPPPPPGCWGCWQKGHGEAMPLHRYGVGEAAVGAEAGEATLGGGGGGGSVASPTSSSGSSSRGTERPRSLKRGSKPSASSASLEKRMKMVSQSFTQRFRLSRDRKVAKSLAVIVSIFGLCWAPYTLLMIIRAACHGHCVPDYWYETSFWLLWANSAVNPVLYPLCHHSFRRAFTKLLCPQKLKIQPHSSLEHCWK

| Ki (hM1R; read-out: affinity to hM1R (Ki)) [nM] | Compound | Ki (hM1R; hM1R -log(Ki) ± sem) [nM] | Ki (hH3R) [nM] | Ki (hM1R; [1]) [nM] |
| --- | --- | --- | --- | --- |
|  | N=C(N)N(CCCCN1CCN(CCCCCCCOc2ccccc2)CC1)Cc1ccccc1 [ADS1017] | 141 |  |  |
|  | N=C(N)N(CCCCN1CCN(C[C@H]2CC[C@@H](COc3ccccc3)CC2)CC1)Cc1ccccc1 [ADS10227, 1-{4-{4-{[4-(phenoxymethyl)cyclohexyl]methyl}piperazin-1-yl}but-1-yl}-1-(benzyl)guanidine] |  | 5890 | 19.5 |
| 45 | [H]/N=C(/N)N(CCCCN1CCN(CC2CCC(COc3ccccc3)CC2)CC1)Cc1ccc(C(F)(F)F)cc1 (stereo not drawn) [ADS10239] |  | 2340 | 46.8 |
